Values belong to the molecule of their own block, whether it stands above or below them.
Columns and labels:
[1] = Aorta contrast to noise ratio (CNR), arterial phase contrast enhanced abdominal CT; assay type: in vivo, minipig; conditions: for FBP [CNR]: 320 mg I/ml, 120 kVp, SoC
Description: (§1) Three studies were carried out in two anaesthetized minipigs (abdominal maximum and minimum diameters approximately 36 cm and 20 cm, respectively). Minipigs were imaged on a Discovery CT 750 HD. Compositions of 160 mg I/ml and 200 mg I/ml Ioforminol were prepared. The 160 mg I/ml formulation included a sodium concentration of 82 mM and a calcium concentration of 0.9 mM. The 200 mg I/ml formulation included a sodium concentration of 73 mM and a calcium concentration of 0.8 mM. For human formulations the calcium concentration is likely to be slightly lower, providing an optimized Na/Ca ratio of 110-120. The Ioforminol formulations (2 ml/kg) were injected at a rate of 2 ml/s into a jugular vein, followed by a 20 ml saline flush at the same injection rate.
(§2) For comparison, Ioforminol at a concentration of 320 mg I/ml and 120 kVp tube voltage was administered to represent the current standard of care (SoC) imaging in man. SoC scans were compared to scans performed with either […] or 200 mg I/ml contrast concentration in the same pig, with at least a 2 day washout period between each scanning session. Automated tube current modulation was used with a noise index level of 23 (SoC) and a tube rotation time of 0.7 s. Post-contrast CT images were acquired during the arterial phase, the portal venous phase, the venous phase and the late phase. Image reconstruction was done by (1) FBP, (2) ASiR 60% and (3) Veo. Pixel size was 0.703 mm×0.703 mm×2.5 mm.
(§3) Iodine contrast enhancement was assessed by measuring the mean x-ray attenuation values (in HUs) within circular region of interests (ROIs). ROIs were placed in both aorta and muscle (quadratus lumborum) in arterial phase images and in the liver in venous phase images. See Tables 1-6 and corresponding FIGS. 1-6. The aorta contrast to noise ratio (CNR) was calculated as the difference in signal between the aorta and muscle, divided by the noise in muscle. The liver signal to noise ratio (SNR) was calculated as the ratio of the mean liver attenuation and the standard deviation (SD).

[2] = Average cluster size in solution; assay type: physicochemical
Text: By intermolecular interactions the contrast media molecules form clusters that are continuously formed and broken up and the average cluster size may be described by a formation/destruction equilibrium. Ioforminol has an increased tendency to form clusters and in water at high concentration an average size of 4 molecules per cluster is predominating, whereas Iodixanol under similar conditions have a mean cluster size of 2.5 molecules. […] The cluster size affects the osmolality of the solution and larger clusters are reflected in a lower osmolality. The non-ideal behaviour of high concentration solutions permits the addition of physiological electrolytes to achieve isotonicity. […] This non-ideal behaviour persistent also at low concentrations enables the addition of physiological electrolytes to the current formulations.

[3] = Liver signal to noise ratio (SNR), venous phase contrast enhanced abdominal CT; assay type: in vivo, minipig; conditions: for FBP [SNR]: 320 mg I/ml, 120 kVp, SoC
Description: as §1, §2, §3

[4] = Viscosity of Ioforminol compositions; assay type: physicochemical; conditions: 20° C.
Description: For X-ray diagnostic compositions which are administered by injection or infusion, the desired upper limit for the solution's viscosity at ambient temperature (20° C.) is generally about 30 mPas, however viscosities of up to 50 to 60 mPas and even more than 60 mPas are seen. With the low concentration of iodine in the composition of the invention the viscosity is below 10 mPas at 20° C., and this is even considerably lower at the lower end of the iodine concentration range. […] For comparison a 320 mg I/ml composition of Ioforminol has a viscosity of 28 mPas (at 20° C.). Particularly, for a 160 mg I/ml composition of Ioforminol the viscosity is only 2.9 mPas (at 20° C.), and for a 200 mg I/ml composition the viscosity is 4.7 mPas (20° C.). […] Such low viscosity has the advantage that the composition is easy to administer and the administration can be done more quickly with a higher volume per time unit, particularly as the injection pressure needed is considerably lower than with compositions with higher viscosities. The lower viscosity enables a reduction in the needle- or catheter diameter down to about 63% of the original diameter without effecting flow rate or injection pressure. As a consequence a hand-held syringe can be used rather than an autoinjector.

[5] = 160 mg I/ml, 80 kVp, CTDIvol 5.2 mGy, FIG. 2
[6] = 200 mg I/ml, 80 kVp, CTDIvol 6.9 mGy, FIG. 1
[7] = 200 mg I/ml, 100 kVp, CTDIvol 5.2 mGy, FIG. 3
[8] = 160 mg I/ml, 80 kVp, CTDIvol 5.2 mGy, FIG. 5
[9] = 200 mg I/ml, 80 kVp, CTDIvol 6.9 mGy, FIG. 4
[10] = 200 mg I/ml, 100 kVp, CTDIvol 5.2 mGy, FIG. 6

average cluster size ([2]; in water at high concentration): 4 molecules per cluster | average cluster size ([2]; low concentrations): 2-3 molecules per cluster | viscosity ([4]; 160 mg I/ml composition): 2.9 mPas | viscosity ([4]; 200 mg I/ml composition): 4.7 mPas | viscosity ([4]; 320 mg I/ml composition): 28 mPas
Compound: O=CN(CC(O)CN(C=O)c1c(I)c(C(=O)NCC(O)CO)c(I)c(C(=O)NCC(O)CO)c1I)c1c(I)c(C(=O)NCC(O)CO)c(I)c(C(=O)NCC(O)CO)c1I (centres unmarked) [Ioforminol, 5,5′-((2-hydroxypropane-1,3-diyl)bis(formylazanediyl))bis(N1,N3-bis(2,3-dihydroxypropyl)-2,4,6-triiodoisophthalamide)]
ASiR 60% [CNR] [1, 5]: 15.1 | Veo [CNR] [1, 5]: 32.1 | ASiR 60% [CNR] [1, 6]: 23 | Veo [CNR] [1, 6]: 46.7 | ASiR 60% [CNR] [1, 7]: 17.7 | Veo [CNR] [1, 7]: 33.2 | FBP [CNR] ([1]; CTDIvol 7.4 mGy, FIG. 2 and 3): 16.9 | FBP [CNR] ([1]; CTDIvol 9.8 mGy, FIG. 1): 17.7 | ASiR 60% [SNR] [3, 8]: 7.7 | Veo [SNR] [3, 8]: 15.1 | ASiR 60% [SNR] [3, 9]: 9.5 | Veo [SNR] [3, 9]: 16.7 | ASiR 60% [SNR] [3, 10]: 7.9 | Veo [SNR] [3, 10]: 13.1 | FBP [SNR] ([3]; CTDIvol 7.4 mGy, FIG. 5 and 6): 8.2 | FBP [SNR] ([3]; CTDIvol 9.8 mGy, FIG. 4): 7.7

Compound: CC(=O)N(CC(O)CN(C(C)=O)c1c(I)c(C(=O)NCC(O)CO)c(I)c(C(=O)NCC(O)CO)c1I)c1c(I)c(C(=O)NCC(O)CO)c(I)c(C(=O)NCC(O)CO)c1I (centres unmarked) [Iodixanol, iodixanol, reference compound]
average cluster size ([2]; in water at high concentration): 2.5 molecules per cluster | average cluster size ([2]; low concentrations): no longer present
